# Laboratory results as given in paper PMC7109127 (British Journal of Cancer, 2020).
# Values joined by “and” are separate entries in the source; they are usually repeats but may differ in a detail not shown here. Equal values may be shown once. Read-outs that look alike come from different tables or passages of the source.
# How the values were obtained:
# [1] = tested on: sVEGFR-2; conditions: by day 27; 1 mg daily cohort; cited from earlier work
# [2] = tested on: metastatic renal cell carcinoma; conditions: TIVO-1; cited from earlier work
# [3] = healthy volunteers; cited from earlier work
# [4] = tested on: SK-HEP-1 cells; conditions: cited from earlier work
# [5] = TIVO-1; cited from earlier work
# [6] = tested on: advanced HCC; assay: phase 1b/2 study, antineoplastic efficacy (RECIST 1.1, PFS, OS); format: in vivo, patients
# Protocol: This was a phase 1b/2, open-label, single-arm multicentre clinical trial. Subjects were accrued at Roswell Park Comprehensive Cancer Centre (RPCI) and Case Comprehensive Cancer Centre. The respective institutional review board (IRB) approved the protocol at each site. The study was conducted according to the principles of the Declaration of Helsinki, the International Conference on Harmonisation and the Guidelines for Good Clinical Practice. All patients provided written informed consent. The trial was registered with ClinicalTrials.gov (NCT01835223).
# Secondary objectives included determination of safety and the PK/PD of tivozanib in patients with advanced HCC. The primary endpoint was PFS at 24 weeks. PFS and not ORR were selected because at the time of study inception PFS or time to progression were acceptable primary efficacy endpoints in early phase HCC studies in view of very low ORR with anti-VEGFR agents. Patients who remained alive and without evidence of disease progression per RECIST 1.1 for at least 24 weeks after enrolment were considered as PFS responders. Secondary endpoints were AEs by CTCAE v4.0, steady state PK, ORR, OS, change in HBV or HCV viral load, serum α-fetoprotein (AFP), and changes in soluble VEGFR-2 (sVEGFR-2).
# Using the 3+3 design, the MTD was the DL with probability of DLT 33% or higher. With three dose levels, between 6 and 18 patients were required to complete the phase 1b portion. In terms of antineoplastic efficacy, the true progression rate of less than p0 = 0.50 was considered unacceptable and evidence of such will deem the treatment not worthy of further study. The null and alternative hypotheses tested were H0: p = p0 vs. H1: p > p0. With this two-stage design, a potential total of 37 patients was required to achieve 80% power to detect a difference of at least 20% with a type I error of 5%. Using a two-stage design, a total of 19 patients were planned to be enrolled initially, including the phase 1b patients treated at the MTD/RP2D. If nine or fewer PFS responses were observed, the therapy would be deemed ineffective and the study would end. Otherwise, an additional 18 patients would be enrolled. If 23 or fewer PFS responses are observed in the total efficacy population, therapy would be deemed ineffective; otherwise, it will be concluded that the therapy is promising. The differences on outcomes between study groups were compared by non-parametric Kruskal–Wallis test and Fisher’s/χ^2 test. OS and PFS were estimated by the Kaplan–Meier method and compared by log-rank test. All tests were two sided and performed at a nominal significance level of 0.05. SAS version 9.4 (SAS Institute, Cary, NC) is used for statistical analyses.
# [7] = tested on: c-kit; conditions: in vitro; read-out: half-maximal inhibitory concentration, c-kit phosphorylation; cited from earlier work
# [8] = background statement; cited from earlier work
# [9] = phase 1b/2 study, plasma pharmacokinetics (LC-MS/MS, NCA and nonlinear mixed-effects model); format: in vivo, patients; design: AUC0-4: concentration or dose not given beside the values
# Protocol: LC-MS/MS analysis of the extracted samples was performed using an Agilent Technologies (Santa Clara, California) HPLC system and the API 3000 mass spectrometer (Sciex, Framingham, MA) with electrospray ionisation. Chromatographic separation was achieved using a biphasic gradient over a Cortecs C18 column (2.1 × 50 mm^2, Waters Corporation, Milford, MA) preceded by a Cortecs C18+VanGuard Cartridge (2.1 × 5 mm^2, Waters Corporation). Analytes were detected using multiple reaction monitoring in positive ion mode.
# A nonlinear mixed-effects model was developed using first-order conditional estimation with interaction (FOCE-I) with the Laplacian option selected. This estimator was chosen as it is more suitable to modelling sparse data sets. One- and two-compartment structural models were tested with first-order absorption, both with and without a separate bioavailability term. Estimates for inter-subject variability were tested on all PK parameters using exponential relationships and were included where they could be confidently estimated. Inter-occasion variability between cycle 1 day 1 and cycle 1 day 15 was also tested. The residual unexplained variability in drug concentrations was tested with additive, proportional, and combined additive and proportional error models. Model selection was performed on the basis of the negative log-likelihood objective function (OFV) and standard goodness-of-fit and diagnostic plots. The final model was composed of one disposition compartment with first-order absorption and elimination. […] To facilitate comparison with previous studies, AUCs from 0 to 4 and 0 to 24 h were calculated from each individual’s model-predicted PK profile. Similarly, the maximum concentration (Cmax) and time of maximum concentration in a given dosing interval (tmax) were estimated both from the original data and the model prediction. The analysis was performed with NONMEM 7.4.1 (ICON plc, Dublin, Ireland), integrated with PSN 4.6.0 (psn.sourceforge.net) and using the Pirana 2.9.2 interface (pirana-software.com).
# [10] = RP2D 1 mg, efficacy population N = 19
# [11] = individual patient estimate (Subject ID in c0)
# [12] = individual patient, Day 1, NCA and Observation
# [13] = individual patient, Day 15, NCA and Observation
structure (smiles),measurement,setting,value
COc1cc2nccc(Oc3ccc(NC(=O)Nc4cc(C)on4)c(Cl)c3)c2cc1OC [tivozanib],sVEGFR-2 decrease from baseline,[1],28%
same,overall response rate (ORR),[2],33.1%
same,progression-free survival (PFS),[2],11.9 months
same,difference in total drug exposure with food consumption,[3],did not show a difference
same,tumour growth inhibition,[4]; daily oral 0.2 mg/kg for 2 weeks,~60%
same,tumour inhibition,[4]; daily oral 1 mg/kg,~90%
same,diarrhoea incidence,[5],23%
same,hypertension incidence,[5],44%
same,palmar–plantar erythrodysesthesia incidence,[5],14%
same,24-week PFS probability,"[6]; Kaplan–Meier, N = 19",58%
same,1-year OS rate,[6]; N = 19,40%
same,2-year OS rate,[6]; N = 19,30%
same,overall disease control rate,"[6]; RECIST 1.1, N = 19",63%
same,PFS responders at 24 weeks (6-month PFS),"[6]; RP2D 1 mg, N = 19",47.3%
same,"overall response rate (PR, RECIST 1.1)","[6]; RP2D 1 mg, N = 19",21%
same,median OS,[6]; [10],9 months and 9.0 months
same,median PFS,[6]; [10],24 weeks
same,IC50,[7],1.63 nM
same,liver toxicities or tissue accumulation,[8],no associated liver toxicities or tissue accumulation
same,"tmax, Median","[9]; Day 1, 1 mg, NCA and observation",4.067 h
same,AUC(0-t),"[9]; human, plasma, oral, 1 mg, Day 1, 1 mg, Model prediction, read-out: AUC0–4, Mean",14.3 ng·h/mL
same,AUC(0-t),"[9]; human, plasma, oral, 1 mg, Day 1, 1 mg, Model prediction, read-out: AUC0–24, Mean",176 ng·h/mL
same,Cmax,"[9]; human, plasma, oral, 1 mg, Day 1, 1 mg, Model prediction, read-out: Cmax, Mean",8.75 ng/mL
same,tmax,"[9]; human, plasma, oral, 1 mg, Day 1, 1 mg, Model prediction, read-out: tmax, Median",13.3 h
same,AUC(0-t),"[9]; human, plasma, oral, 1 mg, Day 1, 1 mg, NCA and observation, read-out: AUC0–4, Mean",14.2 ng·h/mL
same,Cmax,"[9]; human, plasma, oral, 1 mg, Day 1, 1 mg, NCA and observation, read-out: Cmax, Mean",6.54 ng/mL
same,tmax,"[9]; human, plasma, oral, 1 mg, Day 1, 1 mg, NCA and observation, read-out: tmax, Median",4.07 h
same,AUC(0-t),"[9]; human, plasma, oral, 1 mg, Day 15, 1 mg, Model prediction, read-out: AUC0–4, Mean",190 ng·h/mL
same,AUC(0-t),"[9]; human, plasma, oral, 1 mg, Day 15, 1 mg, Model prediction, read-out: AUC0–24, Mean",1100 ng·h/mL
same,Cmax,"[9]; human, plasma, oral, 1 mg, Day 15, 1 mg, Model prediction, read-out: Cmax, Mean",50.7 ng/mL
same,tmax,"[9]; human, plasma, oral, 1 mg, Day 15, 1 mg, Model prediction, read-out: tmax, Median",7 h
same,AUC(0-t),"[9]; human, plasma, oral, 1 mg, Day 15, 1 mg, NCA and observation, read-out: AUC0–4, Mean",184 ng·h/mL
same,Cmax,"[9]; human, plasma, oral, 1 mg, Day 15, 1 mg, NCA and observation, read-out: Cmax, Mean",58.7 ng/mL
same,tmax,"[9]; human, plasma, oral, 1 mg, Day 15, 1 mg, NCA and observation, read-out: tmax, Median",2.05 h
same,Vd/F,"[9]; human, plasma, oral, 1 mg, typical population value, read-out: Apparent Volume of Distribution (V/F)",105 L
same,Apparent systemic clearance,[9]; [11],0.99 L/h and 0.81 L/h and 0.80 L/h
same,Apparent volume of distribution,[9]; [11],159 L
same,AUC0-4,[9]; [12],20.2 ng·h/mL and 21.6 ng·h/mL and 35.9 ng·h/mL and 27.7 ng·h/mL and 1.5 ng·h/mL and 11.0 ng·h/mL and 7.0 ng·h/mL and 16.2 ng·h/mL and 30.3 ng·h/mL and 18.0 ng·h/mL and 18.1 ng·h/mL and 10.6 ng·h/mL and 10.7 ng·h/mL and 16.6 ng·h/mL and 13.8 ng·h/mL and 6.8 ng·h/mL and 15.5 ng·h/mL and 10.3 ng·h/mL and 3.6 ng·h/mL and 0.6 ng·h/mL and 3.5 ng·h/mL and 21.5 ng·h/mL and 18.8 ng·h/mL and 8.9 ng·h/mL and 4.7 ng·h/mL and 24.5 ng·h/mL and 19.4 ng·h/mL
same,Cmax,[9]; [12],8.57 ng/mL and 13.6 ng/mL and 16.3 ng/mL and 9.53 ng/mL and 1.42 ng/mL and 3.62 ng/mL and 2.78 ng/mL and 6.93 ng/mL and 11.8 ng/mL and 8.23 ng/mL and 6.82 ng/mL and 5.84 ng/mL and 4.7 ng/mL and 7.56 ng/mL and 4.71 ng/mL and 3.4 ng/mL and 5.18 ng/mL and 8.48 ng/mL and 1.4 ng/mL and 0.616 ng/mL and 2 ng/mL and 7.29 ng/mL and 7.79 ng/mL and 5.82 ng/mL and 2.97 ng/mL and 8.63 ng/mL and 10.6 ng/mL
same,tmax,[9]; [12],4.067 h and 4.417 h and 4.05 h and 2.167 h and 4.083 h and 4.183 h and 4.017 h and 4.2 h and 4.033 h and 2.067 h and 4.133 h and 5.25 h and 7.667 h and 2.1 h and 4.35 h and 4.167 h
same,AUC0-4,[9]; [13],333.0 ng·h/mL and 558.5 ng·h/mL and 360.8 ng·h/mL and 205.7 ng·h/mL and 154.1 ng·h/mL and 177.6 ng·h/mL and 112.9 ng·h/mL and 103.0 ng·h/mL and 261.2 ng·h/mL and 156.5 ng·h/mL and 150.0 ng·h/mL and 134.8 ng·h/mL and 134.3 ng·h/mL and 148.1 ng·h/mL and 239.7 ng·h/mL and 175.8 ng·h/mL and 163.5 ng·h/mL and 154.7 ng·h/mL and 185.6 ng·h/mL and 106.3 ng·h/mL
same,Cmax,[9]; [13],89.5 ng/mL and 201 ng/mL and 104 ng/mL and 58.8 ng/mL and 43.1 ng/mL and 47 ng/mL and 31.1 ng/mL and 32.3 ng/mL and 70.9 ng/mL and 61.2 ng/mL and 49.9 ng/mL and 33.3 ng/mL and 37.8 ng/mL and 69.4 ng/mL and 53.6 ng/mL and 43.4 ng/mL and 40.3 ng/mL and 38.7 ng/mL and 57.4 ng/mL and 47.3 ng/mL and 30.8 ng/mL
same,tmax,[9]; [13],2.06 h and 2.01 h and 2.1 h and 2.03 h and 2.07 h and 2.12 h and 2 h and 2.02 h and 4.12 h and 4.09 h and 3.91 h
same,Inter-individual variability (IIV) in CL/F,[9]; population model,42.4 %CV
same,Inter-individual variability (IIV) in V/F,[9]; population model,45.8 %CV
same,Inter-individual variability (IIV) in ka/F,[9]; population model,57.5 %CV
same,Apparent Systemic Clearance (CL/F),[9]; typical population value,0.803 L/h
same,Apparent first-order absorption rate constant (ka/F),[9]; typical population value,0.239 h⁻¹
